Measured values as given in patent publication US9593305B2, “Differentiation of pluripotent stem cells” (Janssen Biotech, Inc., priority 2008, dated 2017).

Test system: H1 human embryonic stem cells
Assay: Single-cell monolayer assay with EGF/FGF4, serum free, no activin A (Example 10, Table 10)
Format: cell-based
Description: Briefly, clusters of H1 human embryonic stem cells were grown on reduced growth factor […]™ (Invitrogen; Cat #356231)-coated tissue culture plastic. Cultures were treated with Accutase (Sigma; Cat #A6964), using equivalent volumes of […] surface area for 5 minutes at 37° C., then gently resuspended, pelleted by centrifugation, and resuspended in MEF conditioned medium for counting. For assay seeding, cells were plated at 50,000 cells/cm^2 on reduced growth factor […]™-coated 96-well black plates (Packard ViewPlates; Cat #6005182) using volumes of 100 μl/well. Cells were allowed to attach and recover log phase growth over a 3 to 5 day period, feeding daily with MEF conditioned medium supplemented with 8 ng/ml bFGF (R&D Systems; Cat #233-FB). Plates were maintained at 37° C., 5% CO2 in a humidified box throughout the duration of assay.
Stocks of EGF and FGF4 were prepared in a 96-well polypropylene plate (Corning, Inc.; Cat #3960). Compound 22 was available as a 5 mM stock solubilized in 100% DMSO (Sigma; Cat #D2650) and stored at −80° C. Assays were initiated by aspirating culture medium from each well followed by three washes in PBS to remove residual growth factors and serum. […]
On the second day of assay, wells were again aspirated and fed with 80 μl per well were added back containing RPMI 1640 base medium supplemented with 2.5% fatty acid free BSA, 10 ng/ml bFGF, and 3.125 μM Compound 22 plus 20 μl 5× stock of growth factors to yield a final concentration of 2% fatty acid free BSA, 8 ng/ml bFGF and 2.5 μM Compound 22 in assay. Positive control wells contained the same base medium supplemented with 2% fatty acid free BSA, 8 ng/ml bFGF and 100 ng/ml recombinant human activin A. Negative control samples contained the same base medium supplemented with 2% fatty acid free BSA and 8 ng/ml bFGF but omitted treatment with activin A.
At the conclusion of four-days of culture, assay plates were washed twice with PBS, fixed with 4% paraformaldehyde (Alexis Biochemical; Cat #ALX-350-011) at room temperature for 20 minutes, then washed three times with PBS and permeabilized with 0.5% Triton X-100 (Sigma; Cat #T8760-2) for 20 minutes at room temperature. Cells were washed again three times with PBS and blocked with 4% chicken serum (Invitrogen; Cat #16110082) in PBS for 30 minutes at room temperature. Primary antibody (goat anti-human SOX17; R&D Systems; cat #AF1924) was diluted 1:100 in 4% chicken serum and added to each well for one hour at room temperature. Alexa Fluor 488 conjugated secondary antibody (chicken anti-goat IgG; Molecular Probes; Cat #AZ1467) was diluted 1:200 in PBS and added to each sample well after washing three times with PBS. To counterstain nuclei, 4 μg/ml Hoechst 33342 (Invitrogen; Cat #H3570) was added for ten minutes at room temperature. Plates were washed once with PBS and left in 100 μl/well PBS for imaging.
Imaging was performed using an IN Cell Analyzer 1000 (GE Healthcare) utilizing the 51008bs dichroic for cells stained with Hoechst 33342 and Alexa Fluor 488. Exposure times were optimized from positive control wells and from untreated negative control wells stained with secondary antibody alone. Images from 15 fields per well were acquired to compensate for any cell loss during the bioassay and subsequent staining procedures. Measurements for total cell number and total SOX17 intensity were obtained from each well using IN Cell Developer Toolbox 1.7 (GE Healthcare) software. Segmentation for the nuclei was determined based on gray-scale levels (baseline range 100-300) and nuclear size. Averages and standard deviations were calculated for each replicate data set. Total SOX17 protein expression was reported as total intensity or integrated intensity, defined as total fluorescence of the cell multiplied by the area of the cell. Background was eliminated based on acceptance criteria of gray-scale ranges between 200 to 3500. […]

[1] = Activin A (with Wnt3a), positive control
[2] = No AA (with Wnt3a), FGF none, EGF none
[3] = No AA (with Wnt3a), FGF none, EGF(25 ng/ml)
[4] = No AA (with Wnt3a), FGF none, EGF(50 ng/ml)
[5] = No AA (with Wnt3a), FGF none, EGF(100 ng/ml)
[6] = No AA (with Wnt3a), FGF(25 ng/ml), EGF none
[7] = No AA (with Wnt3a), FGF(25 ng/ml), EGF(25 ng/ml)
[8] = No AA (with Wnt3a), FGF(25 ng/ml), EGF(50 ng/ml)
[9] = No AA (with Wnt3a), FGF(25 ng/ml), EGF(100 ng/ml)
[10] = No AA (with Wnt3a), FGF(50 ng/ml), EGF none
[11] = No AA (with Wnt3a), FGF(50 ng/ml), EGF(25 ng/ml)
[12] = No AA (with Wnt3a), FGF(50 ng/ml), EGF(50 ng/ml)
[13] = No AA (with Wnt3a), FGF(50 ng/ml), EGF(100 ng/ml)
[14] = No AA (with Wnt3a), FGF(100 ng/ml), EGF none
[15] = No AA (with Wnt3a), FGF(100 ng/ml), EGF(25 ng/ml)
[16] = No AA (with Wnt3a), FGF(100 ng/ml), EGF(50 ng/ml)
[17] = No AA (with Wnt3a), FGF(100 ng/ml), EGF(100 ng/ml)
[18] = No AA (without Wnt3a), FGF(50 ng/ml), EGF(50 ng/ml)
[19] = No AA (without Wnt3a), FGF(50 ng/ml), EGF(100 ng/ml)
[20] = No AA (without Wnt3a), FGF(100 ng/ml), EGF(50 ng/ml)
[21] = No AA (without Wnt3a), FGF(100 ng/ml), EGF(100 ng/ml)

Compound: Activin A: recombinant human activin A (PeproTech), TGF-beta family member
- Cell Number, % of positive control [1]: 100.00%
- Cell Number, Average Total Cell Number [1]: 12676
- Sox17 Expression, % of positive control [1]: 100.00%
- Sox17 Expression, Average Total Intensity [1]: 2.72E+08

Compound: O=C1CCN2CCN(CC2)Cc2cc(Cl)cc(c2)Nc2ncnc(n2)-c2cncc(c2)CCCN1 [Compound 34, 5-Chloro-1,8,10,12,16,22,26,32-octaazapentacyclo[24.2.2.1˜3.7˜0.1˜9,13˜0.1˜14.18˜]tritriaconta-3(33), 4,6,9(32), 10,12,14(31), 15,17-nonaen-23-one]
- Cell Number, % of positive control [2]: 92.38%
- Cell Number, Average Total Cell Number [2]: 11711
- Sox17 Expression, % of positive control [2]: 60.68%
- Sox17 Expression, Average Total Intensity [2]: 1.65E+08
- Cell Number, % of positive control [3]: 126.63%
- Cell Number, Average Total Cell Number [3]: 16052
- Sox17 Expression, % of positive control [3]: 78.82%
- Sox17 Expression, Average Total Intensity [3]: 2.14E+08
- Cell Number, % of positive control [4]: 107.23%
- Cell Number, Average Total Cell Number [4]: 13593
- Sox17 Expression, % of positive control [4]: 71.52%
- Sox17 Expression, Average Total Intensity [4]: 1.94E+08
- Cell Number, % of positive control [5]: 103.90%
- Cell Number, Average Total Cell Number [5]: 13170
- Sox17 Expression, % of positive control [5]: 71.04%
- Sox17 Expression, Average Total Intensity [5]: 1.93E+08
- Cell Number, % of positive control [6]: 145.41%
- Cell Number, Average Total Cell Number [6]: 18433
- Sox17 Expression, % of positive control [6]: 91.72%
- Sox17 Expression, Average Total Intensity [6]: 2.49E+08
- Cell Number, % of positive control [7]: 148.63%
- Cell Number, Average Total Cell Number [7]: 18841
- Sox17 Expression, % of positive control [7]: 95.72%
- Sox17 Expression, Average Total Intensity [7]: 2.60E+08
- Cell Number, % of positive control [8]: 128.05%
- Cell Number, Average Total Cell Number [8]: 16232
- Sox17 Expression, % of positive control [8]: 84.79%
- Sox17 Expression, Average Total Intensity [8]: 2.30E+08
- Cell Number, % of positive control [9]: 73.44%
- Cell Number, Average Total Cell Number [9]: 9309
- Sox17 Expression, % of positive control [9]: 51.00%
- Sox17 Expression, Average Total Intensity [9]: 1.39E+08
- Cell Number, % of positive control [10]: 100.64%
- Cell Number, Average Total Cell Number [10]: 12757
- Sox17 Expression, % of positive control [10]: 61.10%
- Sox17 Expression, Average Total Intensity [10]: 1.66E+08
- Cell Number, % of positive control [11]: 139.79%
- Cell Number, Average Total Cell Number [11]: 17720
- Sox17 Expression, % of positive control [11]: 85.01%
- Sox17 Expression, Average Total Intensity [11]: 2.31E+08
- Cell Number, % of positive control [12]: 128.83%
- Cell Number, Average Total Cell Number [12]: 16331
- Sox17 Expression, % of positive control [12]: 83.11%
- Sox17 Expression, Average Total Intensity [12]: 2.26E+08
- Cell Number, % of positive control [13]: 128.87%
- Cell Number, Average Total Cell Number [13]: 16336
- Sox17 Expression, % of positive control [13]: 85.24%
- Sox17 Expression, Average Total Intensity [13]: 2.32E+08
- Cell Number, % of positive control [14]: 156.61%
- Cell Number, Average Total Cell Number [14]: 19853
- Sox17 Expression, % of positive control [14]: 95.45%
- Sox17 Expression, Average Total Intensity [14]: 2.59E+08
- Cell Number, % of positive control [15]: 156.83%
- Cell Number, Average Total Cell Number [15]: 19880
- Sox17 Expression, % of positive control [15]: 95.47%
- Sox17 Expression, Average Total Intensity [15]: 2.59E+08
- Cell Number, % of positive control [16]: 143.30%
- Cell Number, Average Total Cell Number [16]: 18166
- Sox17 Expression, % of positive control [16]: 86.30%
- Sox17 Expression, Average Total Intensity [16]: 2.35E+08
- Cell Number, % of positive control [17]: 88.68%
- Cell Number, Average Total Cell Number [17]: 11241
- Sox17 Expression, % of positive control [17]: 57.10%
- Sox17 Expression, Average Total Intensity [17]: 1.55E+08
- Cell Number, % of positive control [18]: 105.06%
- Cell Number, Average Total Cell Number [18]: 13317
- Sox17 Expression, % of positive control [18]: 74.08%
- Sox17 Expression, Average Total Intensity [18]: 2.01E+08
- Cell Number, % of positive control [19]: 111.93%
- Cell Number, Average Total Cell Number [19]: 14189
- Sox17 Expression, % of positive control [19]: 73.90%
- Sox17 Expression, Average Total Intensity [19]: 2.01E+08
- Cell Number, % of positive control [20]: 99.52%
- Cell Number, Average Total Cell Number [20]: 12616
- Sox17 Expression, % of positive control [20]: 66.21%
- Sox17 Expression, Average Total Intensity [20]: 1.80E+08
- Cell Number, % of positive control [21]: 65.23%
- Cell Number, Average Total Cell Number [21]: 8269
- Sox17 Expression, % of positive control [21]: 41.73%
- SOX17 expression (compound added to EGF and/or FGF4, single cells, no activin A): significant enhancement of SOX17 expression
